Test results as given in ChEMBL document CHEMBL5244273, “Tuberculosis: An Overview of the Immunogenic Response, Disease Progression, and Medicinal Chemistry Efforts in the Last Decade toward the Development of Potential Drugs for Extensively Drug-Resistant Tuberculosis Strains” (J Med Chem, 2021).
Values after ≈ are worked out from the molar mass of the structure shown.

Tests used:
[1] = tested on: Mycobacterium tuberculosis; assay: Antimycobacterial activity against non replicating Mycobacterium tuberculosis by broth dilution method; assay type: functional
[2] = tested on: Mycobacterium tuberculosis; assay: Antimycobacterial activity against Mycobacterium tuberculosis H37Rv ATCC 27294 by broth dilution method; assay type: functional
J774 = assay: Cytotoxicity against mouse J774 cells incubated for 24 hrs by MTT assay; assay type: toxicity, cell-based; conditions: j774, 24 h
[3] = tested on: Mycobacterium tuberculosis; assay: Antitubercular activity against active stage of Mycobacterium tuberculosis H37Ra; assay type: functional
[4] = tested on: Mycobacterium tuberculosis; assay: Antitubercular activity against dormant stage of Mycobacterium tuberculosis H37Ra; assay type: functional
HeLa = assay: Cytotoxicity against human HeLa cells assessed as cell growth inhibition; assay type: functional
MCF7 = assay: Cytotoxicity against human MCF7 cells assessed as cell growth inhibition; assay type: functional
[5] = Cytotoxicity against HUVEC cells assessed as cell growth inhibition; assay type: toxicity, cell-based; conditions: human
[6] = Selectivity index, ratio of GI50 for cytotoxicity against human HeLa cells to MIC for antitubercular activity against active stage of Mycobacterium tuberculosis H37Ra; assay type: toxicity, cell-based; conditions: read-out: Selectivity Index
[7] = Selectivity index, ratio of GI50 for cytotoxicity against human HeLa cells to MIC for antitubercular activity against dormant stage of Mycobacterium tuberculosis H37Ra; assay type: toxicity, cell-based; conditions: read-out: Selectivity Index
[8] = Selectivity index, ratio of GI50 for cytotoxicity against human MCF7 cells to MIC for antitubercular activity against active stage of Mycobacterium tuberculosis H37Ra; assay type: toxicity, cell-based; conditions: read-out: Selectivity Index
[9] = Selectivity index, ratio of GI50 for cytotoxicity against human MCF7 cells to MIC for antitubercular activity against dormant stage of Mycobacterium tuberculosis H37Ra; assay type: toxicity, cell-based; conditions: read-out: Selectivity Index
[10] = Selectivity index, ratio of GI50 for cytotoxicity against HUVEC cells to MIC for antitubercular activity against active stage of Mycobacterium tuberculosis H37Ra; assay type: toxicity, cell-based; conditions: human, read-out: Selectivity Index
[11] = Selectivity index, ratio of GI50 for cytotoxicity against HUVEC cells to MIC for antitubercular activity against dormant stage of Mycobacterium tuberculosis H37Ra; assay type: toxicity, cell-based; conditions: human, read-out: Selectivity Index
[12] = tested on: Mycobacterium tuberculosis; assay: Antimycobacterial activity against Mycobacterium tuberculosis H37Rv; assay type: functional
[13] = Cytotoxicity against HEK293T cells assessed as reduction in cell viability; assay type: toxicity, cell-based, HEK-293T; conditions: human

| SMILES | MIC [1] [µg/mL] | MIC [2] [µg/mL] | Activity (J774) [µg/mL] | MIC [3] [µg/mL] | MIC [4] [µg/mL] | GI50 (HeLa) [µg/mL] | GI50 (MCF7) [µg/mL] | GI50 [5] [µg/mL] | selectivity ratio [6] | selectivity ratio [7] | selectivity ratio [8] | selectivity ratio [9] | selectivity ratio [10] | selectivity ratio [11] | other results |
| --- | --- | --- | --- | --- | --- | --- | --- | --- | --- | --- | --- | --- | --- | --- | --- |
| CC(C)c1ccc(OCc2cn(C[C@@]3(C)Cn4cc([N+](=O)[O-])nc4O3)nn2)cc1 | 1 (≈ 2.51 µM) | 0.5 (≈ 1.25 µM) | > 40 |  |  |  |  |  |  |  |  |  |  |  |  |
| CCOC(=O)c1ccsc1NC(=O)[C@@H]1CCCN1 |  |  |  | 9.08 (≈ 33.8 µM) | 7.62 (≈ 28.4 µM) | 35.3 (≈ 132 µM) | > 250 | > 250 | 3.88 | 4.63 | > 27.5 | > 32.8 | > 27.5 | > 32.8 |  |
| C[C@]1(Cn2cc(-c3ccc(OC(F)(F)F)cc3)nn2)Cn2cc([N+](=O)[O-])nc2O1 | 4 (≈ 9.75 µM) | 2 (≈ 4.87 µM) | > 40 |  |  |  |  |  |  |  |  |  |  |  |  |
| C[C@]1(Cn2cc(CN3CCOCC3)nn2)Cn2cc([N+](=O)[O-])nc2O1 | 1 (≈ 2.86 µM) | 2 (≈ 5.72 µM) | > 40 |  |  |  |  |  |  |  |  |  |  |  |  |
| CC(=O)N1/C(=C/c2ccc(NC(C)C)cc2)C(=O)c2ccccc21 |  |  |  |  |  |  |  |  |  |  |  |  |  |  | MIC90 [12]: > 20 µM; MIC99 [12]: > 20 µM; CC50 [13]: 19 µM |
| O=C1CC[C@@H](COC(=O)c2ccsc2NC(=O)[C@@H]2CCCN2)N1 |  |  |  | 9.46 (≈ 28 µM) | 6.67 (≈ 19.8 µM) | 191 (≈ 566 µM) | 148 (≈ 437 µM) | 88.6 (≈ 263 µM) | 20.2 | 28.6 | 15.6 | 22.1 | 9.36 | 13.3 |  |
| C[C@]1(Cn2cc(COc3cccc(F)c3)nn2)Cn2cc([N+](=O)[O-])nc2O1 | 2 (≈ 5.34 µM) | 1 (≈ 2.67 µM) | > 40 |  |  |  |  |  |  |  |  |  |  |  |  |
| O=C(OCC(F)(F)F)c1ccsc1NC(=O)[C@@H]1CCCN1 |  |  |  | 8.23 (≈ 25.5 µM) | 1.08 (≈ 3.35 µM) | 109 (≈ 339 µM) | 89.7 (≈ 278 µM) | > 250 | 13.3 | 101 | 10.9 | 83 | > 30.4 | > 231 |  |
| Cc1ccc(OCc2cn(C[C@@]3(C)Cn4cc([N+](=O)[O-])nc4O3)nn2)cc1 | 2 (≈ 5.4 µM) | 1 (≈ 2.7 µM) | > 40 |  |  |  |  |  |  |  |  |  |  |  |  |
| CC(=O)O[C@H]1C(=O)[C@@]2(C)[C@H]([C@H](OC(=O)c3ccccc3)[C@]3(O)C[C@H](OC(=O)[C@H](O)[C@@H](NC(=O)c4ccccc4)c4ccccc4)C(C)=C1C3(C)C)[C@]1(OC(C)=O)CO[C@@H]1C[C@@H]2O [PACLITAXEL] |  |  |  |  |  | 0.0048 (≈ 0.00562 µM) | 0.0021 (≈ 0.00246 µM) | > 10 |  |  |  |  |  |  |  |
| CCCCCc1cn(C[C@@]2(C)Cn3cc([N+](=O)[O-])nc3O2)nn1 | 4 (≈ 12.5 µM) | 2 (≈ 6.24 µM) | > 40 |  |  |  |  |  |  |  |  |  |  |  |  |
| C[C@]1(Cn2cc(-c3ccc(F)cc3F)nn2)Cn2cc([N+](=O)[O-])nc2O1 | 8 (≈ 22.1 µM) | 1 (≈ 2.76 µM) | > 40 |  |  |  |  |  |  |  |  |  |  |  |  |
| Cc1ccc(SCc2cn(C[C@@]3(C)Cn4cc([N+](=O)[O-])nc4O3)nn2)cc1 | 1 (≈ 2.59 µM) | 2 (≈ 5.18 µM) | > 40 |  |  |  |  |  |  |  |  |  |  |  |  |
| CC(=O)N1/C(=C/c2ccc(-c3ccc(OC(F)(F)F)cc3)cc2)C(=O)c2ccccc21 |  |  |  |  |  |  |  |  |  |  |  |  |  |  | MIC90 [12]: 1.44 µM (≈ 0.61 µg/mL); MIC99 [12]: 3.19 µM (≈ 1.35 µg/mL); CC50 [13]: 8 µM |
| CC(=O)N1/C(=C/c2cccc(-c3cnc4ccccc4c3)c2)C(=O)c2ccccc21 |  |  |  |  |  |  |  |  |  |  |  |  |  |  | MIC90 [12]: 2.65 µM (≈ 1.03 µg/mL); MIC99 [12]: 3.13 µM (≈ 1.22 µg/mL); CC50 [13]: 14 µM |
| COC(=O)c1sccc1NC(=O)[C@@H]1CCCN1 |  |  |  | 15.9 (≈ 62.4 µM) | 6.74 (≈ 26.5 µM) | 90.4 (≈ 355 µM) | 163 (≈ 641 µM) | 91.3 (≈ 359 µM) | 5.7 | 13.4 | 10.3 | 24.2 | 5.75 | 13.6 |  |
| O=C(Oc1ccccc1)c1ccsc1NC(=O)[C@@H]1CCCN1 |  |  |  | 24.7 (≈ 78.2 µM) | 23.7 (≈ 74.8 µM) | > 250 | > 250 | > 250 | > 10.1 | > 10.6 | > 10.1 | > 10.6 | > 10.1 | > 10.6 |  |
| O=C(OCc1ccccc1)c1ccsc1NC(=O)[C@@H]1CCCN1 |  |  |  | 21.1 (≈ 63.9 µM) | 3.76 (≈ 11.4 µM) | > 250 | > 250 | > 250 | > 11.8 | > 66.5 | > 11.8 | > 66.5 | > 11.8 | > 66.5 |  |
| COC(=O)c1ccsc1NC(=O)[C@@H]1CCCN1 |  |  |  | 12 (≈ 47.1 µM) | 3.35 (≈ 13.2 µM) | > 250 | > 250 | > 250 | > 20.9 | > 74.6 | > 20.9 | > 74.6 | > 20.9 | > 74.6 |  |
| C[C@]1(Cn2cc(COc3cccc(Cl)c3)nn2)Cn2cc([N+](=O)[O-])nc2O1 | 1 (≈ 2.56 µM) | 0.5 (≈ 1.28 µM) | > 40 |  |  |  |  |  |  |  |  |  |  |  |  |
| CC(=O)N1/C(=C/c2cccc(-c3ccc(Cl)cc3)c2)C(=O)c2ccccc21 |  |  |  |  |  |  |  |  |  |  |  |  |  |  | MIC90 [12]: 6.44 µM (≈ 2.41 µg/mL); MIC99 [12]: 7.85 µM (≈ 2.93 µg/mL); CC50 [13]: 4 µM |
